± gives the standard deviation of the averaged measurements.
Columns and labels:
Experiment in all cases: level (log10 ratio to DMSO vehicle control); higher = higher biomarker level / cell amount than vehicle control
[1] = compound: NS(=O)(=O)C(F)(F)C(F)(F)C(F)(F)C(F)(F)C(F)(F)C(F)(F)F [Perfluorohexanesulfonamide]; details: in DMSO
Description: (§1)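 BioMAP Diversity Plus panel of 12 human primary cell co-culture systems (3C, 4H, LPS, SAg, BT, BF4T, BE3C, CASM3C, HDF3CGF, KF3CT, MyoF, Mphg). Compounds were added 1 h before stimulation and left for 24 h (MyoF 48 h; BT 72 h for soluble read-outs or 6 d for IgG). Biomarkers were read by ELISA, cytotoxicity by SRB, PBMC viability and proliferation by Alamar Blue. Each well value was divided by the mean of 8 DMSO control wells on the same plate and log10 transformed; duplicate blinded samples were tested at 4 concentrations.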

Nonafluoropentanamide = compound: NC(=O)C(F)(F)C(F)(F)C(F)(F)C(F)(F)F [Nonafluoropentanamide]; details: in DMSO
Description: as §1

[2] = compound: COC(=O)C(F)(F)C(F)(F)OC(F)(C(F)(F)F)C(F)(F)OC(F)=C(F)F [Methyl perfluoro(3-(1-ethenyloxypropan-2-yloxy)propanoate)]; details: in DMSO
Description: as §1

[3] = compound: C=CC(=O)OCC(F)(F)C(F)(F)C(F)(F)COC(=O)C=C [1H,1H,5H,5H-Perfluoro-1,5-pentanediol diacrylate]; details: 6700 nM; in DMSO
Description: as §1

[4] = compound: NC(=O)C(F)(F)C(F)(F)C(F)(F)C(F)F; details: in DMSO
Description: as §1

[5] = compound: FC(F)(F)C(F)(F)C(F)(F)C(F)(F)C(F)(F)C(F)(F)C(F)(F)I [1-Iodopentadecafluoroheptane]; details: in DMSO
Description: as §1

[6] = compound: FC(F)(F)C(F)(F)C(F)(F)CC1CO1 [1H,1H-Heptafluorobutyl epoxide]; details: in DMSO
Description: as §1

[7] = compound: FC(F)(F)C(F)(F)CNCC(F)(F)C(F)(F)F [Bis(1H,1H-perfluoropropyl)amine]; details: in DMSO
Description: as §1

[8] = compound: O=C(O)C=CC(F)(C(F)(F)F)C(F)(F)F [3-(Perfluoroisopropyl)-2-propenoic acid]; details: in DMSO
Description: as §1

[9] = compound: O=S(=O)(Cl)C(F)(F)C(F)(F)C(F)(F)C(F)(F)C(F)(F)C(F)(F)C(F)(F)C(F)(F)F [Perfluoro-1-octanesulfonyl chloride]; details: in DMSO
Description: as §1

[10] = compound: FC(F)(F)C(F)(F)C(F)(F)C(F)(F)C(F)(F)C(F)(F)CC1CO1 [3-(Perfluorohexyl)-1,2-epoxypropane]; details: in DMSO
Description: as §1

Octafluoroadipamide = compound: NC(=O)C(F)(F)C(F)(F)C(F)(F)C(F)(F)C(N)=O [Octafluoroadipamide]; details: in DMSO
Description: as §1

[11] = compound: O=S(=O)(O)CCC(F)(F)C(F)(F)C(F)(F)C(F)(F)C(F)(F)C(F)(F)F [6:2 Fluorotelomer sulfonic acid]; details: in DMSO
Description: as §1

[12] = compound: C=C(C)C(=O)OCCC(F)(F)C(F)(F)C(F)(F)C(F)(F)C(F)(F)C(F)(F)F [6:2 Fluorotelomer methacrylate]; details: in DMSO
Description: as §1

[13] = compound: O=S(=O)(O)C(F)(F)C(F)(F)C(F)(F)C(F)(F)C(F)(F)C(F)(F)C(F)(F)C(F)(F)C(F)(F)C(F)(F)F [Sodium perfluorodecanesulfonate]; details: in DMSO
Description: as §1

[14] = compound: O=C(O)C(F)(F)C(F)(F)C(F)(F)C(F)(F)C(F)(F)C(F)(F)C(F)(F)C(F)(F)C(F)(F)C(F)F [11-H-Perfluoroundecanoic acid]; details: in DMSO
Description: as §1

[15] = compound: O=S(=O)(F)C(F)(F)C(F)(F)C(F)(F)C(F)(F)C(F)(F)C(F)(F)C(F)(F)C(F)(F)F [Perfluorooctanesulfonyl fluoride]; details: in DMSO
Description: as §1

Hexafluoroamylene glycol = compound: OCC(F)(F)C(F)(F)C(F)(F)CO [Hexafluoroamylene glycol]; details: in DMSO
Description: as §1

Heptafluorobutyl iodide = compound: FC(F)(F)C(F)(F)C(F)(F)CI [Heptafluorobutyl iodide]; details: in DMSO
Description: as §1

LPS:CCL2/MCP-1
level (log10) ([1]; 6700 nM): -0.011 ± 0.0028
level (log10) ([1]; 20000 nM): -0.024 ± 0.018
level (log10) ([1]; 60000 nM): -0.102 ± 0.034
level (log10) (Nonafluoropentanamide; 6700 nM): 0.005 ± 0.011
level (log10) (Nonafluoropentanamide; 20000 nM): 0.022 ± 0.035
level (log10) (Nonafluoropentanamide; 60000 nM): 0.0325 ± 0.039
level (log10) ([2]; 6700 nM): -0.0235 ± 0.00071
level (log10) ([2]; 20000 nM): 0.013 ± 0.025
level (log10) [3]: -0.042 ± 0.014
level (log10) ([4]; 6700 nM): 0.009 ± 0.045
level (log10) ([4]; 20000 nM): 0.005 ± 0.042
level (log10) ([4]; 60000 nM): 0.03 ± 0.013
level (log10) ([5]; 6700 nM): 0.0035 ± 0.00071
level (log10) ([5]; 20000 nM): 0.0225 ± 0.0021
level (log10) ([6]; 6700 nM): -0.0025 ± 0.005
level (log10) ([6]; 20000 nM): -0.017 ± 0.023
level (log10) ([6]; 60000 nM): -0.0095 ± 0.0021
level (log10) ([7]; 6700 nM): -0.0105 ± 0.00071
level (log10) ([7]; 20000 nM): -0.006 ± 0.0085
level (log10) ([7]; 60000 nM): 0.0015 ± 0.03
level (log10) ([8]; 6700 nM): 0.004 ± 0.0085
level (log10) ([8]; 20000 nM): -0.0155 ± 0.013
level (log10) ([8]; 60000 nM): -0.0015 ± 0.0021
level (log10) ([9]; 6700 nM): -0.0075 ± 0.0078
level (log10) ([9]; 20000 nM): 0.025 ± 0.021
level (log10) ([9]; 60000 nM): 0.0205 ± 0.029
level (log10) ([10]; 6700 nM): -0.012 ± 0.011
level (log10) ([10]; 20000 nM): -0.0055 ± 0.019
level (log10) ([10]; 60000 nM): 0.0025 ± 0.0078
level (log10) (Octafluoroadipamide; 6700 nM): 0.003 ± 0.0042
level (log10) (Octafluoroadipamide; 20000 nM): 0.0005 ± 0.0035
level (log10) (Octafluoroadipamide; 60000 nM): 0.018 ± 0.021
level (log10) ([11]; 6700 nM): 0.0095 ± 0.0021
level (log10) ([11]; 20000 nM): 0.037 ± 0.018
level (log10) ([11]; 60000 nM): 0.056 ± 0.037
level (log10) ([12]; 6700 nM): -0.007 ± 0.05
level (log10) ([12]; 20000 nM): -0.014 ± 0.034
level (log10) ([12]; 60000 nM): -0.043
level (log10) ([13]; 1500 nM): -0.0165 ± 0.011
level (log10) ([13]; 4400 nM): -0.041 ± 0.0085
level (log10) ([13]; 13000 nM): -0.0235 ± 0.033
level (log10) ([13]; 40000 nM): -0.0655 ± 0.077
level (log10) ([14]; 6700 nM): -0.009 ± 0.0085
level (log10) ([14]; 20000 nM): -0.022 ± 0.0099
level (log10) ([15]; 6700 nM): 0.0005 ± 0.015
level (log10) ([15]; 20000 nM): -0.012 ± 0.016
level (log10) ([15]; 60000 nM): 0.0145 ± 0.028
level (log10) (Hexafluoroamylene glycol; 6700 nM): 0.0055 ± 0.012
level (log10) (Hexafluoroamylene glycol; 20000 nM): -0.009 ± 0.03
level (log10) (Hexafluoroamylene glycol; 60000 nM): 0.0135 ± 0.04
level (log10) (Heptafluorobutyl iodide; 6700 nM): 0.008 ± 0.041
level (log10) (Heptafluorobutyl iodide; 20000 nM): 0.0035 ± 0.013
level (log10) (Heptafluorobutyl iodide; 60000 nM): 0.027 ± 0.024

From the supplement of paper PMC10331698
